Results taken from publication PMC3265476, “Functional Characterization of MODY2 Mutations Highlights the Importance of the Fine-Tuning of Glucokinase and Its Role in Glucose Sensing” (PLoS ONE, 2012).
Where two headings read alike, the source gives them in different places.

How the values were obtained:
Assay type in all cases: biochemical
GST-GK(p.Ala449Thr) [1] = target: T1, GST-GK(p.Ala449Thr) (Homo sapiens, UniProt P35557, A449T); experiment: Inhibition of glucokinase activity by NAG and MH, Dixon plots; settings: for IC50: glucose 1, 1.5 and 2 mM, 180 nM protein
T1 construct: made in house; host or cells: E. coli
T1 sequence (P35557 1-465 A449T): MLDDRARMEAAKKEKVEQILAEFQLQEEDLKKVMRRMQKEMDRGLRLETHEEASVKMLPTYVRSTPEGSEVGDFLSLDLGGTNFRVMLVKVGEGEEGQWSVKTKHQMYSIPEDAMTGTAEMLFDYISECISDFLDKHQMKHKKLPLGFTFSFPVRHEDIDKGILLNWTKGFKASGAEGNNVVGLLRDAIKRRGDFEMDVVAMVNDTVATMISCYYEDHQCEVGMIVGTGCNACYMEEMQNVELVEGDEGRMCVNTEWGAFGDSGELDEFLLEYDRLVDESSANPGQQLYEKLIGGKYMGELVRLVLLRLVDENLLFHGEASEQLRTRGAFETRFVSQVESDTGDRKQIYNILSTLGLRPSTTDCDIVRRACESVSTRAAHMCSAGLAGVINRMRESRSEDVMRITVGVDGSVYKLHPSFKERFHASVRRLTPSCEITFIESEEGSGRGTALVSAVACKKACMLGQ
Experimental: (§1) Glucokinase activity was measured spectrophotometrically on a spectrophotometer Uviconxl (Secoman), using an NADP^+-coupled assay with glucose-6-phosphate dehydrogenase, as described previously. The final reaction mixture contained 100 mM Tris pH 7.4, 150 mM KCl, 1 mM MgCl2, 1.4 mM ß-mercaptoethanol, 0.1% BSA, 5 mM ATP-MgCl2, 1 mM NADP^+, and 1 U/ml glucose-6-phosphate dehydrogenase. Determination of kinetic parameters and thermal stability tests were performed as in [20]. […] Inhibition by NAG and MH was determined under standard assay conditions with 50 nM glucokinase. The inhibition by palmitoylCoA was determined in reaction mixtures containing 25 mM Hepes pH 7.1; 25 mM KCl; 1 mM NADP, 1 mM ATP-MgCl2; 2.5 mM MgCl2; 5 mM ß-mercaptoethanol, 1 U/ml glucose-6-phosphate dehydrogenase and 61 nM glucokinase. Due to the low Kcat value of mutant GST-GK(pAla449Thr), the amount of protein used in inhibition assays was 180 nM to get sufficient activity to allow for accurate determination of the inhibitor effect. In these conditions, GK activity (U/mg of GST-GK(pAla449Thr)) in the absence of inhibitors was 1.3±0.08, 1.1±0.06 and 0.9±0.05 at 2, 1.5 and 1 mM of glucose, respectively for NAG and MH assays and 0.5±0.05, 0.33±0.03 and 0.27±0.03 at 2, 1.5 and 1 mM glucose, respectively for palmitoyl-CoA assay.

Wild-type GST-GK [2] = target: T2, Wild-type GST-GK (Homo sapiens, UniProt P35557); experiment: as above; settings: glucose 2, 5 and 8 mM, 50 nM glucokinase
T2 construct: made in house; host or cells: E. coli
T2 sequence (P35557 1-465): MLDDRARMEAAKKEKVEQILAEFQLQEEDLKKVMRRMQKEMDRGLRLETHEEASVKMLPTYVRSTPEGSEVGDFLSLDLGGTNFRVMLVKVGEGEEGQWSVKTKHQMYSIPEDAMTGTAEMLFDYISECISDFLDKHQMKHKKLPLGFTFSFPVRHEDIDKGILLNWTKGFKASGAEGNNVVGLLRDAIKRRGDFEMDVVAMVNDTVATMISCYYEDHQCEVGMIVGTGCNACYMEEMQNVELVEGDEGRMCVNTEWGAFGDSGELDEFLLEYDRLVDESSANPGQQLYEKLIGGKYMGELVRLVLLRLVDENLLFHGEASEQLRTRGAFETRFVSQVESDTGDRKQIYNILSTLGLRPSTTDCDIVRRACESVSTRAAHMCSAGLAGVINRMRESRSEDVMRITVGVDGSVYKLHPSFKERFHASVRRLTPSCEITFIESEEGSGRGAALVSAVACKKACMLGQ
Experimental: as §1

GST-GK(p.Gly223Ser) = target: T3, GST-GK(p.Gly223Ser) (Homo sapiens, UniProt P35557, G223S); experiment: as above; settings: glucose 12.5, 25 and 50 mM
T3 construct: made in house; host or cells: E. coli
T3 sequence (P35557 1-465 G223S): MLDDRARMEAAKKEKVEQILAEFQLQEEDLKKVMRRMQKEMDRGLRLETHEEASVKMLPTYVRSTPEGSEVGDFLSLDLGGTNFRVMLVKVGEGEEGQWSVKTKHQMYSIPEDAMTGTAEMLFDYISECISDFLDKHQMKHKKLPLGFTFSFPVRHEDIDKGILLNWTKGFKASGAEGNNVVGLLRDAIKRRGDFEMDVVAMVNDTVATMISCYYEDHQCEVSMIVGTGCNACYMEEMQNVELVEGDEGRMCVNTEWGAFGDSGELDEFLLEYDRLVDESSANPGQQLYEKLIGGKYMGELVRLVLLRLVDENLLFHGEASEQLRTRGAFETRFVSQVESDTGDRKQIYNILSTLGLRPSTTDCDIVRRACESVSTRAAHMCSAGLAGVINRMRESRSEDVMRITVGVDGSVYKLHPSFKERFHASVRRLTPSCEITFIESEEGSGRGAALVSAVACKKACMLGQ
Experimental: as §1

GST-GK(p.Ala449Thr) [3] = target: T1, GST-GK(p.Ala449Thr); experiment: Effect of GK synthetic activator on kinetic parameters
Experimental: as §1
(§2) GK activator LY2121260 was kindly provided by Elli Lilly and Co, Indianapolis, IN, USA. A stock solution of 1 mM LY2121260 was prepared in 12.5 mM Hepes pH 7.4 with 80% DMSO. Results are shown as means ± SEM, and statistical significance was analysed by the two-tailed Student's t-test. P values of <0.05 were considered statistically significant. The structural analysis of mutations was carried out using the crystal structure of human GK [18] and visualized using the Pymol Molecular Graphics System (Schrödinger).

Wild-type GST-GK [4] = target: T2, Wild-type GST-GK; experiment: as above
Experimental: as §1, §2

[5] = system: human beta-cell glucokinase; experiment: Kinetic analysis of recombinant GST-GK fusion proteins (NADP+-coupled assay with glucose-6-phosphate dehydrogenase); settings: for S0.5 for glucose: means ± SEM; for overall activity, % of the wild-type protein: reflected in the relative activity index; for nH (Hill coefficient): unit less
Experimental: The expression and purification of fusion proteins from E. coli was performed as described previously [22]. Fusion proteins were stored at a concentration of about 1 mg/ml at −80°C in 30% glycerol, 50 mM glucose, 10 mM glutathione, 5 mM DTT, 200 mM KCl and 50 mM Tris/HCl pH = 8.0. Protein concentrations were determined using the Bio-Rad Protein Assay (Bio-Rad Laboratories, GmbH), with bovine serum albumin as standard.
Glucokinase activity was measured spectrophotometrically on a spectrophotometer Uviconxl (Secoman), using an NADP^+-coupled assay with glucose-6-phosphate dehydrogenase, as described previously [22]. The final reaction mixture contained 100 mM Tris pH 7.4, 150 mM KCl, 1 mM MgCl2, 1.4 mM ß-mercaptoethanol, 0.1% BSA, 5 mM ATP-MgCl2, 1 mM NADP^+, and 1 U/ml glucose-6-phosphate dehydrogenase. Determination of kinetic parameters and thermal stability tests were performed as in [20].
One unit of GK is defined as the amount of enzyme that phosphorylates 1 µmol of glucose per min at 30°C.

O=C(CO)[C@@H](O)[C@@H](O)[C@H](O)[C@H](O)CO [MH, mannoheptulose]
IC50 (GST-GK(p.Ala449Thr) [1]; read-out: I50 for MH): 670 ± 40 µM | IC50 (Wild-type GST-GK [2]; read-out: I50 for MH): 1150 ± 370 µM | IC50 (GST-GK(p.Gly223Ser); read-out: I50 for MH): 3.55 ± 0.63 mM

CS(=O)(=O)c1ccc([C@@]2(C(=O)Nc3nccs3)C[C@H]2C2CCCCC2)cc1 [LY2121260]
S0.5 for glucose (GST-GK(p.Ala449Thr) [3]; 10 µM GK activator, 0.8% DMSO): 3.1 ± 0.3 mM | effect on S0.5 (GST-GK(p.Ala449Thr) [3]; 10 µM activator): did not affect | Kcat (%) (Wild-type GST-GK [4]; 10 µM GK activator, 0.8% DMSO, wild type with buffer = 100): 130.8±3.9 % | increase of Kcat (Wild-type GST-GK [4]; 10 µM activator): about 30% | increase of affinity for glucose (Wild-type GST-GK [4]; 10 µM activator): about 5 fold

CC(=O)N[C@@H]1[C@@H](O)[C@H](O)[C@@H](CO)O[C@H]1O [NAG, N-acetylglucosamine]
IC50 (GST-GK(p.Ala449Thr) [1]; read-out: I50 for NAG): 200 ± 60 µM | effect of mutation on inhibition by NAG (GST-GK(p.Ala449Thr) [1]; vs wild type): did not affect the inhibition | IC50 (Wild-type GST-GK [2]; read-out: I50 for NAG): 210 ± 40 µM | IC50 (GST-GK(p.Gly223Ser); read-out: I50 for NAG): 0.38 ± 0.045 mM

B1: GST-GK (p.Ile130Thr): recombinant GST-glucokinase fusion protein with MODY2 mutation p.Ile130Thr (protein, UniProt P35557 1-465, looked up, variant I130T)
Hexokinase-4: MLDDRARMEAAKKEKVEQILAEFQLQEEDLKKVMRRMQKEMDRGLRLETHEEASVKMLPTYVRSTPEGSEVGDFLSLDLGGTNFRVMLVKVGEGEEGQWSVKTKHQMYSIPEDAMTGTAEMLFDYISECTSDFLDKHQMKHKKLPLGFTFSFPVRHEDIDKGILLNWTKGFKASGAEGNNVVGLLRDAIKRRGDFEMDVVAMVNDTVATMISCYYEDHQCEVGMIVGTGCNACYMEEMQNVELVEGDEGRMCVNTEWGAFGDSGELDEFLLEYDRLVDESSANPGQQLYEKLIGGKYMGELVRLVLLRLVDENLLFHGEASEQLRTRGAFETRFVSQVESDTGDRKQIYNILSTLGLRPSTTDCDIVRRACESVSTRAAHMCSAGLAGVINRMRESRSEDVMRITVGVDGSVYKLHPSFKERFHASVRRLTPSCEITFIESEEGSGRGAALVSAVACKKACMLGQ
modifications: N-terminal GST fusion
S0.5 for glucose [5]: 8.59 ± 0.45 mM | overall activity, % of the wild-type protein [5]: lower than 20% | nH (Hill coefficient) [5]: 1.01±0.02

B2: GST-GK (p.Gly223Ser): recombinant GST-glucokinase fusion protein with MODY2 mutation p.Gly223Ser (protein, UniProt P35557 1-465, looked up, variant G223S)
Hexokinase-4: MLDDRARMEAAKKEKVEQILAEFQLQEEDLKKVMRRMQKEMDRGLRLETHEEASVKMLPTYVRSTPEGSEVGDFLSLDLGGTNFRVMLVKVGEGEEGQWSVKTKHQMYSIPEDAMTGTAEMLFDYISECISDFLDKHQMKHKKLPLGFTFSFPVRHEDIDKGILLNWTKGFKASGAEGNNVVGLLRDAIKRRGDFEMDVVAMVNDTVATMISCYYEDHQCEVSMIVGTGCNACYMEEMQNVELVEGDEGRMCVNTEWGAFGDSGELDEFLLEYDRLVDESSANPGQQLYEKLIGGKYMGELVRLVLLRLVDENLLFHGEASEQLRTRGAFETRFVSQVESDTGDRKQIYNILSTLGLRPSTTDCDIVRRACESVSTRAAHMCSAGLAGVINRMRESRSEDVMRITVGVDGSVYKLHPSFKERFHASVRRLTPSCEITFIESEEGSGRGAALVSAVACKKACMLGQ
modifications: N-terminal GST fusion
S0.5 for glucose [5]: 44.0 ± 3.81 mM | overall activity, % of the wild-type protein [5]: < 10% | nH (Hill coefficient) [5]: 1.13±0.01

B3: GST-GK (p.Asp205His): recombinant GST-glucokinase fusion protein with MODY2 mutation p.Asp205His (protein, UniProt P35557 1-465, looked up, variant D205H)
Hexokinase-4: MLDDRARMEAAKKEKVEQILAEFQLQEEDLKKVMRRMQKEMDRGLRLETHEEASVKMLPTYVRSTPEGSEVGDFLSLDLGGTNFRVMLVKVGEGEEGQWSVKTKHQMYSIPEDAMTGTAEMLFDYISECISDFLDKHQMKHKKLPLGFTFSFPVRHEDIDKGILLNWTKGFKASGAEGNNVVGLLRDAIKRRGDFEMDVVAMVNHTVATMISCYYEDHQCEVGMIVGTGCNACYMEEMQNVELVEGDEGRMCVNTEWGAFGDSGELDEFLLEYDRLVDESSANPGQQLYEKLIGGKYMGELVRLVLLRLVDENLLFHGEASEQLRTRGAFETRFVSQVESDTGDRKQIYNILSTLGLRPSTTDCDIVRRACESVSTRAAHMCSAGLAGVINRMRESRSEDVMRITVGVDGSVYKLHPSFKERFHASVRRLTPSCEITFIESEEGSGRGAALVSAVACKKACMLGQ
modifications: N-terminal GST fusion
S0.5 for glucose [5]: No activity at all | nH (Hill coefficient) [5]: No activity at all
